Each structure is given as a SMILES string. A value given as a limit tells only on which side of the number the result lay.

T1 sequence (Q16539 whole entry): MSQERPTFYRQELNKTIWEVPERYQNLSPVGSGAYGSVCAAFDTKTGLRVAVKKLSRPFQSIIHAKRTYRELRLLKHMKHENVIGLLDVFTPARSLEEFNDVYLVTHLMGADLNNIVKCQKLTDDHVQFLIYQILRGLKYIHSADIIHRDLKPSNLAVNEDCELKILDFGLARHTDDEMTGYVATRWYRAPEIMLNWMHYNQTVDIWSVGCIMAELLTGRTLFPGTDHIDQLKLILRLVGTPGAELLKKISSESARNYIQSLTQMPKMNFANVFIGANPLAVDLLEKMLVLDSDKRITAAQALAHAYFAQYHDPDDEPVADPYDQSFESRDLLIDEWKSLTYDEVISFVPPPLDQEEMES

Test system in one series: not given
Assay: not given
Settings: not given
In general, melting point refers to the temperature, or range, at which the solid turns liquid. In the case of `Cc1cc(F)ccc1-c1nc(NCCNC(=O)Nc2cccc(F)c2)nc2c1ccc(=O)n2-c1c(F)cccc1F` [Example 161, 1-[2-[8-(2,6-Difluorophenyl)-4-(4-fluoro-2-methylphenyl)-7-oxo-7,8-dihydro-pyrido[2,3-d]pyrimidin-2-ylamino]ethyl]-3-[3-fluorophenyl]urea], the melting point is 131 to 144 °C.

Molecule `Cc1cc(F)ccc1-c1nc(NCCNC(=O)c2ccccc2)nc2c1ccc(=O)n2-c1c(F)cccc1F` [Example 163, 8-(2,6-Difluorophenyl)-4-(4-fluoro-2-methylphenyl)-2-[N-(2-aminoethyl)-3-benzamido]-8H-pyrido[2,3-d]pyrimidin-7-one] returned a melting point of 246 to 248 °C.

`CCC(=O)NCCNc1nc(-c2ccc(F)cc2C)c2ccc(=O)n(-c3c(F)cccc3F)c2n1` [Example 165] gave a melting point of 214 to 216 °C.

`Cc1cc(F)ccc1-c1nc(NCCNC(=O)C(C)(C)C)nc2c1ccc(=O)n2-c1c(F)cccc1F` [Example 166] came in with a melting point of 111 to 133 °C.

For `Cc1cc(F)ccc1-c1nc(NCCNC(=O)OC(C)(C)C)nc2c1ccc(=O)n2-c1c(F)cccc1F` [Example 167], the melting point lay in the range of 106 to 119 °C.

As to `Cc1cc(F)ccc1-c1nc(Nc2c[nH]c(=O)[nH]c2=O)nc2c1ccc(=O)n2-c1c(F)cccc1F` [Example 168, 8-(2,6-Difluorophenyl)-4-(4-fluoro-2-methylphenyl)-2-(N-aminouracil-5-yl)-8H-pyrido[2,3-d]pyrimidin-7-one], the melting point was over 300 °C.

On to `Cc1cc(F)ccc1-c1nc(NCCNS(C)(=O)=O)nc2c1ccc(=O)n2-c1c(F)cccc1F` [Example 189, N-[2-[[8-(2,6-Difluorophenyl)-4-(4-fluoro-2-methylphenyl)-7,8-d hydro-7-oxopyrido[2,3-d]pyrimidin-2-yl]amino]ethyl]methanesulfonamide], for which the melting point is 105 to 115 °C (dec.).

`COC(=O)CNc1nc(-c2ccc(F)cc2C)c2ccc(=O)n(-c3c(F)cccc3F)c2n1` [Example 190, Methyl N-[8-(2,6-difluorophenyl)-4-(4-fluoro-2-methylphenyl)-7,8-dihydro-7-oxopyrido[2,3-d]pyrimidin-2-yl] glycinate] came in with a melting point of 212 to 213 °C.

With `Cc1cc(F)ccc1-c1nc(NCC(=O)O)nc2c1ccc(=O)n2-c1c(F)cccc1F` [Example 191, N-[8-(2,6-Difluorophenyl)-4-(4-fluoro-2-methylphenyl)-7,8-dihydro-7-oxopyrido[2,3-d]pyrimidin-2-yl]glycine], the melting point fell in the range of 260 to 261 °C.

Take `CCNC(=O)CNc1nc(-c2ccc(F)cc2C)c2ccc(=O)n(-c3c(F)cccc3F)c2n1` [Example 192]: the melting point is 250 to 253 °C (dec.).

A further series has as its target T1, CSBP/p38 (Homo sapiens, UniProt Q16539).
T1 construct: made in house; host or cells: yeast
Description: CSBP/p38 Kinase Assay (32P transfer from ATP to EGFR-derived T669 peptide). In kind it is biochemical. The following applies: yeast-expressed, activated and purified p38, 0.17 mM ATP, 25 min at 37° C., read-out: IC50, positive inhibitory activity in this binding assay. Here is the method: Assay: Test compound concentrations were prepared at 10× concentrations and LPS prepared at […] (final conc. of 50 ng/ml LPS) and added in 50 uL volumes to 1.5 mL eppendorf tubes. Heparinized human whole blood was obtained from healthy volunteers and was dispensed into eppendorf tubes containing compounds and LPS in 0.4 mL volumes and the tubes incubated at 37 C. Following a 4 hour incubation, the tubes were centrifuged at 5000 rpm for 5 minutes in a TOMY microfuge, plasma was withdrawn and frozen at −80 C. Cytokine measurement: IL-1 and/or TNF were quantified using a standardized ELISA technology. An in-house ELISA kit was used to detect human IL-1 and TNF. Concentrations of IL-1 or TNF were determined from standard curves of the appropriate cytokine and IC50 values for test compound (concentration that inhibited 50% of LPS-stimulated cytokine production) were calculated by linear regression analysis. CSBP/p38 Kinase Assay:
This assay measures the CSBP/p38-catalyzed transfer of ^32P from […] to threonine residue in an epidermal growth factor receptor (EGFR)-derived peptide (T669) with the following sequence: […] (SEQ ID No. 1) (residues 661-681). […]
Reactions were carried in round bottom 96 well plate (from Corning) in a 30 ml volume. […] Filters were washed with 75 mM phosphoric acids, and incorporated 32P was quantified using beta scintillation counter. […]
A word on the IC50: it is the concentration needed to halve the response being measured. Take `CSc1nc(Oc2ccccc2)c2ccc(=O)n(-c3ccccc3Cl)c2n1` [Example 111, 8-(2-Chloro-phenyl)-2-methylsulfanyl-4-phenoxy-8H-pyrido[2,3-d]pyrimidin-7-one]: the IC50 is under 10 µM.

The values are drawn from patent publication US7759486B2, “2,4,5-Trisubstituted pyrimidine compounds” (GlaxoSmithKline LLC, priority 2000, dated 2010).
